Data on 9 molecules can be found in patent US7427686B2, “(3R, 4R)-trans-3, 4-diarylchroman derivatives and a method for the prevention and/or treatment of estrogen dependent diseases” (Counsel of Scientific and Industrial Research, priority 2003, dated 2008).

Like-named read-outs stand apart in the source and are kept apart here.

Series [1] relates to immature ovariectomized rats. Briefly: Estrogen agonistic activity (uterine weight and uterine morphometry). In kind it is in vivo, rat. To be noted: for Percent increase in uterine weight (percent of OVX + vehicle treatment group): 3 days. On the procedure:
Twenty-one-day-old immature female rats are bilaterally ovariectomized under light ether anaesthesia and, after post-operative rest for 7 days, are randomized into different treatment groups. Each rat receives the compound of the invention once daily for 3 consecutive days on days 28-30 of age. A separate group of animals receiving only the vehicle for similar duration serves as control. At autopsy 24 h after the last treatment on day 31 of age, vaginal smear of each rat is taken and uterus is carefully excised, gently blotted, weighed and fixed for histology and histomorphometry using image analysis. Premature opening of vagina, cornification of vaginal epithelium, increase in uterine fresh weight, total uterine and endometrial area and uterine luminal epithelial cell height are taken as parameters for evaluation of estrogen agonistic activity in comparison to rats of vehicle control group.
For image analysis in estrogen agonistic activity evaluation studies, paraffin sections (6 μm thick) of the uterus stained with haematoxylin and eosin were analysed microscopically. To determine changes in uterine tissue components, areas of whole uterus and endometrium and the thickness of uterine epithelium were measured using a computer-image analysis system (BioVis, Expert Vision, India). Briefly, microscopic images of uterus acquired through a CCD camera were loaded in to the image analysis program and spatially calibrated against a stage micrometer image taken at the same magnification. Using thresholding and line tools, the regions for measurements were selected and the area (mm^2) of whole uterine transection excluding the luminal space, the area (mm^2) of the endometrium only, and the thickness (μm) of luminal epithelial lining were measured. Luminal epithelial thickness data was the Average of measurements made at 6 randomly selected sites are taken as parameters for evaluation.

Series [2] deals with immature ovariectomized rats. Briefly: Estrogen antagonistic activity (EE induced uterine weight gain). The series is classed as in vivo, rat. The settings on record: 3 days. On the procedure:
Twenty-one-day-old immature female rats are bilaterally ovariectomized under light ether anaesthesia and after post-operative rest for 7 days, are randomized into different treatment groups. Each rat receives the compounds of the invention and 0.02 mg/kg dose of 17-alfa-ethynylestradiol in 10% ethanol-distilled water once daily for 3 consecutive days on days 28-30 of age. A separate group of animals-receiving only 17-alfa-ethynylestradiol (0.02 mg/kg) in 10% ethanol-distilled water for similar duration are used for comparison. At autopsy on day 31 of age, vaginal smear of each rat is taken and uterus is carefully excised, gently blotted, weighed and fixed for histology and histomorphometry using image analysis. Inhibition in 17-alfa-ethynylestradiol-induced premature opening of vagina, cornification of vaginal epithelium, increase in uterine fresh weight, total uterine and endometrial area and uterine luminal epithelial cell height are taken as parameters for evaluation of estrogen antagonistic activity.

Series [3] addresses T1, estrogen receptors (Rattus norvegicus, UniProt P06211).
T1 construct: Aliquot of uterine cytosol (200 μl; 2 uteri per ml) prepared in TEA buffer; from tissue; host or cells: uterine cytosol of immature estradiol-primed 20-21 day old rats
T1 sequence (P06211 1-600): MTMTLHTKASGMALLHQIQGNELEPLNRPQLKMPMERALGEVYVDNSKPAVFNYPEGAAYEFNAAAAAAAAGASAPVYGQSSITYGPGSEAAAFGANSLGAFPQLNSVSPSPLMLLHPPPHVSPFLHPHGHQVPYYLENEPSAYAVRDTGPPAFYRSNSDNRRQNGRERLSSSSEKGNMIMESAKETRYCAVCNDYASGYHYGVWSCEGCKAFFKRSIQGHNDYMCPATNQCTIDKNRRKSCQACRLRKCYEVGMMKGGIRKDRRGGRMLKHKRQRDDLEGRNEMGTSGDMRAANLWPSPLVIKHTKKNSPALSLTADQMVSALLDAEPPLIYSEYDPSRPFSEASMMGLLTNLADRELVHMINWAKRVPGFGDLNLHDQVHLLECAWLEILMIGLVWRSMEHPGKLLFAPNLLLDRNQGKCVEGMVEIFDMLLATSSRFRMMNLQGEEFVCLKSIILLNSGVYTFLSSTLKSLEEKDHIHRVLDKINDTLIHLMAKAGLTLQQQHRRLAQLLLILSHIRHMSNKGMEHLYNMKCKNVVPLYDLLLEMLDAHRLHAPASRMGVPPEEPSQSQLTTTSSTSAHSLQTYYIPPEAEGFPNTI
Description: Relative binding affinity (RBA) to estrogen receptors, 3H-estradiol competition assay. The settings on record: rat uterine cytosol, 3H-E2, 18 hrs at 4° C.; relative to 17-beta-estradiol = 100.

For series [4], the system named is adult female rats. Briefly: Post-coital antifertility activity. The settings on record: oral. The series is classed as in vivo, rat. On the procedure:
Adult female rats are caged overnight with coeval males of proven fertility and their vaginal smears are checked on the following morning. The day of presence of spermatozoa in the vaginal smear is taken as day 1 of pregnancy. […] Animals of all the groups are autopsied on day 10 post-coitum and number and status of corpora lutea and implantation sites in each rat are recorded. The compounds of the present invention are considered active if there is complete absence of implantations in the uterus of all rats, in comparison to presence of normal implantations in the uterus of rats of vehicle control group.

Series [5] has as its system PTH-induced resorption of 45Ca from chick fetal bones in culture. Description: Antiosteoporosis (antiresorptive) activity in vitro, chick fetal bone assay. The series is classed as cell-based. The settings on record: for T/C ratio: 100 μM, inhibition in PTH-induced resorption of 45Ca. On the procedure: Test solutions of the compounds of the present invention are prepared in appropriate solvents in concentration range of 5 millimolar to 400 millimolar, most preferably in concentrations of 20 millimolar. 5 μl of each concentration are used for evaluation of antiresorptive activity in vitro. In control experiments, 5 μl of appropriate solvent is used in lieu of test compound. Femur bones are isolated from chick embryos on day 11 post-ovulation. The adhering soft connective tissue is completely removed. Each femur bone is then placed in a drop of phosphate buffered saline (PBS) and is transferred to BGJb culture medium containing ^45CaCl2 and incubated for 2 h. Labeled femur bones are washed 2-3 times with PBS and transferred to BGJb medium containing parathyroid hormone and cultured for 96 h in the presence or absence of the compound of invention or the vehicle in BGJb medium. Contralateral femur of each fetus serves as corresponding control. Culture medium with the respective treatment in each well is changed after 48 h. On termination of the culture at 96 h, bones are transferred to 0.1 N HCl for 24 h. Radioactivity due to ^45Ca in the spent medium collected at 48 and 96 h of culture and HCl extract at 96 h of culture is quantified by Liquid Scintillation Spectrophotometer in 10 ml of the scintillation fluid. Bone resorbing activity is expressed as percentage of ^45Ca released into the culture medium and the effect of the compound of invention as percent of the corresponding contra-lateral control or T/C ratio as shown below: [formula] Appropriate solvents are selected from solvents like water, normal (physiological) saline, phosphate buffered saline, phosphate buffer, DMSO alone or in a suitable combinations thereof.

In series [6] the test system is MCF-7 cells. Description: cells. The series is classed as cell-based, human. On the procedure:
The procedure is based on the following methods: New colorimetric assay for anticancer drug screening, Skehan et al., J Natn Cancer Inst, 82,1107, 1990 and Feasibility of a high-flux anticancer drug screen using a diverse panel of cultured human tumor cell lines 83,757, 1991.
A fully confluent flask of MCF-7 cells in trypsinized and 10^4 cells/well are plated in a 96 welled flat bottomed plate in 200 μl Minimum Essential Medium (MEM), pH 7.4 and allowed to attach for 24 h at 37° C. in a humidified CO2 incubator. Subsequently, the compound of invention dissolved in DMSO or ethanol is added at a specified concentration and further incubated for 48 h as before. The cells are then fixed in 50 μl cold 50% TCA and incubated for 1 h at 4° C. The supernatant is discarded and the plate is washed five times with deionized water and air dried. 100 μl of 0.4% (w/v) Sulforhodamine B (SRB) in 1% acetic acid is added to each well and incubated at room temperature for 30 minutes. Unbound SRB is removed by five washes with chilled 1% acetic acid and the plate is air dried. 200 μl of unbuffered 10 mM Tris base is added to solublize the bound stain for 5 minutes at room temperature and O.D. is read at 560 nm in a plate reader. The graph is plotted between O.D. and concentration and LC50 is calculated with respect to tamoxifen, which is used as a positive control.

The mark [7] stands for this setting: 0.05 mg/kg daily with 0.02 mg/kg 17-alfa-ethynylestradiol.
The mark [8] stands for this setting: 0.05 mg/kg daily, days 1-5 post-coitum.
Where [9] appears, read: 0.1 mg/kg daily, days 1-5 post-coitum.
Where [10] appears, read: cultured MCF-7 cells, 48 h, read-out: LC50 (the source's name).

For the molecule `COc1ccc2c(c1)OC(C)(C)[C@@H](c1ccccc1)[C@@H]2c1ccc(OC[C@@H](O)CN2CCCC2)cc1` (relative stereo) [Example number 8], in series [1] (0.05 mg/kg daily), the “Endometrium Epithelial cell height” value is given as 17.25 μm, the “Endometrium Total area” value was 0.35 mm^2, the “Uterus Total area” value came out at 0.67 mm^2 and the “Percent increase in uterine weight (percent of OVX + vehicle treatment group)” value (“Percent increase in uterine weight” for short) is given as 53%. Moreover, the “Percent inhibition in EE induced uterine weight gain” value (“Percent inhibition” for short) in series [2] (setting [7]) came to 49%. The molecule also had an RBA in series [3] of 6.6. The “% Efficacy” value in series [4] (setting [8]) came to 100%. Besides, the “% Efficacy” value in series [4] (setting [9]) is reported as 100%. Further, the “% Efficacy” value in series [4] (0.5 mg/kg, day 1 post-coitum) is listed as 100%. The “% Efficacy” value in series [4] (1 mg/kg, day 1 post-coitum) was determined as 100%.

Take `COc1ccc2c(c1)OC(C)(C)[C@@H](c1ccccc1)[C@@H]2c1ccc(OCC2CO2)cc1` (relative stereo) [Example number 10, 3R,4R-Trans-2,2-dimethyl-3-phenyl-4-(4-(2,3-epoxypropyloxy)-phenyl)-7-methoxychroman]: the T/C ratio in series [5] turned out to be 0.79.

On to `CCCCNC[C@H](O)COc1ccc([C@@H]2c3ccc(OC)cc3OC(C)(C)[C@H]2c2ccccc2)cc1` (relative stereo) [Example number 7], for which, in series [5], the T/C ratio is listed as 0.41. Also, the “Endometrium Epithelial cell height” value in series [1] (0.05 mg/kg daily) was 6.17 μm. Further, the “Endometrium Total area” value in series [1] (0.05 mg/kg daily) was determined as 0.13 mm^2. In addition, the “Uterus Total area” value in series [1] (0.05 mg/kg daily) was 0.35 mm^2. Also, the “Percent increase in uterine weight” value in series [1] (0.05 mg/kg daily) amounted to 11%. Moreover, the “Percent inhibition” value in series [2] (setting [7]) is listed as 31%. The “% Efficacy” value in series [4] (0.025 mg/kg daily, days 1-5 post-coitum) is “Inactive”; in series [4] (setting [8]) it was 100%; in series [4] (setting [9]) it was 100%; in series [4] (0.5 mg/kg, day 1 post-coitum), 50%; in series [4] (1 mg/kg, day 1 post-coitum), 100%.

With `O=C(c1ccc(OCCN2CCCCC2)cc1)c1c(-c2ccc(O)cc2)sc2cc(O)ccc12` [Raloxifene, reference compound], the T/C in series [5] (comparator, concentration not given) is on record as 0.6.

As to `COc1ccc2c(c1)OC(C)(C)[C@@H](c1ccccc1)[C@@H]2c1ccc(OCC(O)CN2CCCC2)cc1` (relative stereo) [Example number 12, 3R,4R-Trans-2,2-dimethyl-3-phenyl-4-(4-(2-hydroxy-3-pyrrolidinopropyloxy)-phenyl)-7-methoxy chroman], the T/C ratio in series [5] was found to be 0.77. Moreover, in series [1] (0.1 mg/kg daily), the “Endometrium Epithelial cell height” value is listed as 15.93 μm, the “Endometrium Total area” value is 0.27 mm^2 and the “Uterus Total area” value came out at 0.56 mm^2. Also, the “Percent increase in uterine weight” value in series [1] (0.10 mg/kg daily) stood at 120%. Also, the “Percent inhibition” value in series [2] (0.1 mg/kg daily with 0.02 mg/kg 17-alfa-ethynylestradiol) was determined as 38%. In series [6] (setting [10]), the CC50 stood at 18.2 µM. In addition, the “% Efficacy” value in series [4] (setting [8]) was 50%. In addition, the “% Efficacy” value in series [4] (0.1 mg/kg daily, days 1-7 post-coitum) amounted to 100%.

`CC/C(=C(\c1ccccc1)c1ccc(OCCN(C)C)cc1)c1ccccc1` [Tamoxifen, reference compound]: the CC50 in series [6] (Homo sapiens, MCF7, 48 h, read-out: LC50) came out at 14.2 µM.

For `COc1ccc2c(c1)OC(C)(C)[C@@H](c1ccccc1)[C@@H]2c1ccc(OCC(O)CN2CCCCC2)cc1` (relative stereo) [Example number 13, 3R,4R-Trans-2,2-dimethyl-3-phenyl-4-(4-(2-hydroxy-3-piperidinopropyloxy)-phenyl)-7-methoxychroman], the CC50 in series [6] (setting [10]) amounted to 17.8 µM.

`COc1ccc2c(c1)OC(C)(C)[C@@H](c1ccccc1)[C@@H]2c1ccc(OC[C@H]2CO2)cc1` (relative stereo) [Example number 1]: the T/C ratio in series [5] was 0.59.

Turning to `C#C[C@]1(O)CC[C@H]2[C@@H]3CCc4cc(O)ccc4[C@H]3CC[C@@]21C` [17-alfa-Ethynylestradiol, reference compound], in series [1] (0.01 mg/kg daily), the “Endometrium Epithelial cell height” value is reported as 33.65 μm, the “Endometrium Total area” value was found to be 0.57 mm^2, the “Uterus Total area” value came to 1.21 mm^2 and the “Percent increase in uterine weight” value was determined as 419%.
